Each structure is given as a SMILES string.

The experiment deals with Thymidine kinase (Human herpesvirus 1). The note with it: Human alphaherpesvirus 1.

`Nc1ncnc2c1ncn2[C@H]1C[C@H](O)[C@@H](CO)O1` had an ID50 of over 1 mM.
